{"source": "patent US9896437B2", "about": "“Diarylhydantoin compounds” (The Regents of the University of California, priority 2007, dated 2018)", "key": {"[1]": {"tested_on": "hormone refractory LAPC4", "assay": "Hormone refractory LAPC4 xenograft model", "details": "compared with vehicle", "text": "Compounds can also be tested in another xenograft model of hormone refractory prostate cancer, hormone refractory LAPC4. This model is established from passaging of hormone sensitive prostate cancer in castrated mice, which mimics the clinical progression of prostate cancer."}, "[2]": {"tested_on": "LNCaP cells with overexpressed AR (LN-AR)", "assay": "MTS assay of growth of LNCaP-AR cells", "experimental": "LNCaP-AR cells can be maintained in Iscove's medium containing 10% FBS. The compounds are examined for their effect on growth of hormone refractory prostate cancer cells. Overexpressed LNCaP cells are used because these cells behave as hormone refractory prostate cancer cells in vitro and in vivo. Mitochondria activity by MTS assay is measured, a surrogate for growth. LNCaP cells with overexpressed AR (LN-AR) are maintained in Iscove's medium containing 10% FBS. Two days prior to drug treatment, the cells are grown in Iscove's medium containing 10% CS-FBS to deprive of androgens. The cells are then split and grown in Iscove's medium containing 10% CS-FBS with appropriate concentrations of R1881 and increasing concentrations of the test compounds. After four days incubation, cell growth is monitored by MTS (Promega, Madison, Wis.).\nThe inhibitory effect of compounds on growth of hormone refractory prostate cancer in the presence of 100 pM of R1881 is measured."}, "[3]": {"tested_on": "LNCaP cells", "assay": "MTS assay of growth of parental, hormone sensitive LNCaP cells"}, "[4]": {"tested_on": "androgen receptor (AR)", "format": "cell-based", "text": "For example, the compounds can be subjected to tests using an artificial androgen receptor (AR) response reporter system in a hormone refractory prostate cancer cell line. The prostate cancer LNCaP cells are engineered to stably express about 5-fold higher level of AR than endogenous level. The exogenous AR has similar properties to endogenous AR in that both are stabilized by a synthetic androgen R1881. […] The antagonistic activity of the compounds for which the synthesis is described above can be examined in the presence of 100 pM of R1881. Engineered LNCaP cells (LNCaP-AR, also abbreviated LN-AR) are maintained in Iscove's medium containing 10% fetal bovine serum (FBS). Two days prior to drug treatment, the cells are grown in Iscove's medium containing 10% charcoal-stripped FBS (CS-FBS) to deprive of androgens. The cells are split and grown in Iscove's medium containing 10% CS-FBS with 100 pM of R1881 and increasing concentrations of test compounds. After two days of incubation, reporter activities are assayed.\nTo determine agonistic activities of different compounds, the stimulating activities on androgen receptor (AR) using the AR response reporter as the measure in the LN-AR system in the absence of R1881 can be examined."}, "[5]": {"tested_on": "androgen receptor (AR)", "format": "cell-based", "from_the_text": "The LNCaP-AR cells are a line of lymph node carcinoma of prostate cells transduced with a plasmid that makes express androgen receptors.", "remark": "listed apart in the source"}, "[6]": {"target": "androgen receptor (AR) (Homo sapiens, UniProt P10275, T878A)", "sequence (P10275 whole entry T878A)": "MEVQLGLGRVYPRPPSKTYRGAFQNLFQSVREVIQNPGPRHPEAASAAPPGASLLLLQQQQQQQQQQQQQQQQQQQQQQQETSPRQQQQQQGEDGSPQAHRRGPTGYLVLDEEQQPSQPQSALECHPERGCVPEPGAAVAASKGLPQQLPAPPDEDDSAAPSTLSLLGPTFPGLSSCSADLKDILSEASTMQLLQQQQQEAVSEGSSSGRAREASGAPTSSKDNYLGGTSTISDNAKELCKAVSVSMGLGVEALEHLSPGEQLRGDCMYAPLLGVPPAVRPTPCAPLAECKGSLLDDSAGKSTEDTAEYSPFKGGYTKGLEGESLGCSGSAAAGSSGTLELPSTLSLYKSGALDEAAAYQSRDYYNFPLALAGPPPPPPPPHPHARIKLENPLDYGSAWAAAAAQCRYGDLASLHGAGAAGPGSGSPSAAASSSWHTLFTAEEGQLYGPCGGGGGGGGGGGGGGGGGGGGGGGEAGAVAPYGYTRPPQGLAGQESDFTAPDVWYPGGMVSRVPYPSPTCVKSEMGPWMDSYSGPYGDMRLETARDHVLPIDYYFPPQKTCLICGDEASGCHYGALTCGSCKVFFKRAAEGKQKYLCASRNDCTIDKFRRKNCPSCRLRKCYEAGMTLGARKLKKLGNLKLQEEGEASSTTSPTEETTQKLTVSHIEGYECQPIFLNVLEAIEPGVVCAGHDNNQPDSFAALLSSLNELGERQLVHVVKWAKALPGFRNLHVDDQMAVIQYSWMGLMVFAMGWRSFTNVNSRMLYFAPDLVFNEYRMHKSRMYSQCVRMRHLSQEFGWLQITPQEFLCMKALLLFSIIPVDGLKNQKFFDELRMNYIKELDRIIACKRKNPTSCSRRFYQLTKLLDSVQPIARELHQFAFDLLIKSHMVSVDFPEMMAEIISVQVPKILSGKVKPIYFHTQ", "details": "parental LNCaP cells"}}, "data": [{"compound": "CC(O)(CS(=O)(=O)c1ccc(F)cc1)C(=O)Nc1ccc(C#N)c(C(F)(F)F)c1", "note": "(stereo not shown) [Bicalutamide]", "values": [{"measurement": "inhibition of PSA expression", "setting": "[1]", "result": "does not inhibit"}, {"measurement": "inhibition of growth", "setting": "[1]", "result": "does not inhibit"}, {"measurement": "inhibitory effect on growth of hormone refractory prostate cancer", "setting": "[2]; presence of 100 pM of R1881, MTS", "result": "does not inhibit"}]}, {"compound": "C[C@]1(O)CC[C@H]2[C@@H]3CCC4=CC(=O)CCC4=C3C=C[C@@]21C", "note": "[R1881]", "values": [{"measurement": "concentration at which growth is first stimulated", "setting": "[3]", "result": 100, "unit": "µM"}, {"measurement": "reporter activity response to androgen", "setting": "[4]; LNCaP-AR cells", "result": "responds to low concentration"}, {"measurement": "concentration that strongly induces the secreted PSA level", "setting": "[5]; LNCaP-AR cells", "result": 25, "unit": "pM"}, {"measurement": "concentration that stimulates growth", "setting": "[2]; AR-overexpressed LNCaP, MTS", "result": 25, "unit": "µM"}, {"measurement": "concentration at which PSA is first induced", "setting": "[6]", "result": 100, "unit": "pM"}]}, {"compound": "CC1(C)C(=O)N(c2ccc(C#N)c(C(F)(F)F)c2)C(=S)N1CCCCO", "note": "[RU59063]", "values": [{"measurement": "agonistic activity on AR (AR response reporter)", "setting": "[4]; LN-AR system, hormone refractory, absence of R1881", "result": "can activate AR"}, {"measurement": "stimulation of PSA expression (agonistic activity)", "setting": "[5]; hormone refractory prostate cancer, absence of R1881", "result": "can stimulate PSA expression"}]}]}
